Assay results from patent publication US20230129721A1, “STABILIZER FOR RADIOPHARMACEUTICALS AND RADIOPHARMACEUTICAL COMPOSITION COMPRISING THE SAME” (THE ASAN FOUNDATION, priority 2020, published 2023).

Assay: Stability (labeling / radiochemical purity by HPLC) of ^99mTc-labeled radiopharmaceutical-containing preparation under acidic, neutral and basic conditions
Type: physicochemical
Description: 2 mL of Tc-99m was added dropwise to a lyophilization vial containing 0.1 mg of GP-104, 15 μg of SnCl2, and 20 μg (165 nmol) of cysteine, and left at room temperature for 10 minutes, and the reaction was terminated by adjusting the pH of the mixture to pH 7 using a NaOH solution. The labeling purity was determined using HPLC (analysis conditions: Luna C18 250×4.6 mm, phosphate buffer:acetonitrile (100:0, 0-5 minutes; 80:20, 5-10 minutes; 80:20, 17 minutes; 100:0, 17.1 minutes; 100:0. 20 minutes), 1.0 mL/min, UV=280 nm).
HCl and NaOH were further added dropwise to the solution of Example 7 to adjust the final pH of the solution, followed by stability evaluation under the acidic (pH 5.5) and basic (pH 8.5) conditions. Then, the labeling purity was determined in the same manner as in Example 7 using HPLC.
2 mL of Tc-99m was added dropwise to a lyophilization vial containing 0.1 mg of radiopharmaceutical GP-104, 15 μg of SnCl2, 10 μg (82.5 nmol) of cysteine, and 22 μg (82.5 nmol) of VB1, and left at room temperature for 10 minutes, and the reaction was terminated by adjusting the pH of the mixture to pH 7 using a NaOH solution. Then, the labeling purity was determined in the same manner as in Example 7 using HPLC.
HCl and NaOH were further added dropwise to the solution of Example 9 to adjust the final pH of the solution, followed by stability evaluation under the acidic (pH 5.5) and basic (pH 8.5) conditions. Then, the labeling purity was determined in the same manner as in Example 7 using HPLC.
2 mL of Tc-99m was added dropwise to a lyophilization vial containing 0.1 mg of GP-104, 15 μg of SnCl2, 10 μg (82.5 nmol) of cysteine, and 17 μg (82.5 nmol) of VB6, and left at room temperature for 10 minutes, and the reaction was terminated by adjusting the pH of the mixture to pH 7 using a NaOH solution. Then, the labeling purity was determined in the same manner as in Example 7 using HPLC.
HCl and NaOH were further added dropwise to the solution of Example 11 to adjust the final pH of the solution, followed by stability evaluation under the acidic (pH 5.5) and basic (pH 8.5) conditions. Then, the labeling purity was determined in the same manner as in Example 7 using HPLC.
2 mL of Tc-99m was added dropwise to a lyophilization vial containing 0.1 mg of GP-105, 15 μg of SnCl2, and 20 μg (165 nmol) of cysteine, and left at room temperature for 10 minutes, and the reaction was terminated by adjusting the pH of the mixture to pH 7 using a NaOH solution. Then, the labeling purity was determined in the same manner as in Example 7 using HPLC.
HCl and NaOH were further added dropwise to the solution of Example 13 to adjust the final pH of the solution, followed by stability evaluation under the acidic (pH 5.5) and basic (pH 8.5) conditions. Then, the labeling purity was determined in the same manner as in Example 7 using HPLC.
2 mL of Tc-99m was added dropwise to a lyophilization vial containing 0.1 mg of GP-105, 15 μg of SnCl2, 10 μg (82.5 nmol) of cysteine, and 22 μg (82.5 nmol) of VB1, and left at room temperature for 10 minutes, and the reaction was terminated by adjusting the pH of the mixture to pH 7 using a NaOH solution. Then, the labeling purity was determined in the same manner as in Example 7 using HPLC.
HCl and NaOH were further added dropwise to the solution of Example 15 to adjust the final pH of the solution, followed by stability evaluation under the acidic (pH 5.5) and basic (pH 8.5) conditions. Then, the labeling purity was determined in the same manner as in Example 7 using HPLC.
2 mL of Tc-99m was added dropwise to a lyophilization vial containing 0.1 mg of GP-105, 15 μg of SnCl2, 10 μg (82.5 nmol) of cysteine, and 17 μg (82.5 nmol) of VB6, and left at room temperature for 10 minutes, and the reaction was terminated by adjusting the pH of the mixture to pH 7 using a NaOH solution. Then, the labeling purity was determined in the same manner as in Example 7 using HPLC. […]

[1] = 10 μg (82.5 nmol) cysteine and 17 μg (82.5 nmol) VB6, pH 5.5, 0 hr
[2] = 10 μg (82.5 nmol) cysteine and 17 μg (82.5 nmol) VB6, pH 5.5, 2 hr
[3] = 10 μg (82.5 nmol) cysteine and 17 μg (82.5 nmol) VB6, pH 5.5, 4 hr
[4] = 10 μg (82.5 nmol) cysteine and 17 μg (82.5 nmol) VB6, pH 7, 0 hr
[5] = 10 μg (82.5 nmol) cysteine and 17 μg (82.5 nmol) VB6, pH 7, 2 hr
[6] = 10 μg (82.5 nmol) cysteine and 17 μg (82.5 nmol) VB6, pH 7, 4 hr
[7] = 10 μg (82.5 nmol) cysteine and 17 μg (82.5 nmol) VB6, pH 8.5, 0 hr
[8] = 10 μg (82.5 nmol) cysteine and 17 μg (82.5 nmol) VB6, pH 8.5, 2 hr
[9] = 10 μg (82.5 nmol) cysteine and 17 μg (82.5 nmol) VB6, pH 8.5, 4 hr
[10] = 10 μg (82.5 nmol) cysteine and 22 μg (82.5 nmol) VB1, pH 5.5, 0 hr
[11] = 10 μg (82.5 nmol) cysteine and 22 μg (82.5 nmol) VB1, pH 5.5, 2 hr
[12] = 10 μg (82.5 nmol) cysteine and 22 μg (82.5 nmol) VB1, pH 5.5, 4 hr
[13] = 10 μg (82.5 nmol) cysteine and 22 μg (82.5 nmol) VB1, pH 7, 0 hr
[14] = 10 μg (82.5 nmol) cysteine and 22 μg (82.5 nmol) VB1, pH 7, 2 hr
[15] = 10 μg (82.5 nmol) cysteine and 22 μg (82.5 nmol) VB1, pH 7, 4 hr
[16] = 10 μg (82.5 nmol) cysteine and 22 μg (82.5 nmol) VB1, pH 8.5, 0 hr
[17] = 10 μg (82.5 nmol) cysteine and 22 μg (82.5 nmol) VB1, pH 8.5, 2 hr
[18] = 10 μg (82.5 nmol) cysteine and 22 μg (82.5 nmol) VB1, pH 8.5, 4 hr
[19] = 20 μg (165 nmol) cysteine, pH 5.5, 0 hr
[20] = 20 μg (165 nmol) cysteine, pH 5.5, 2 hr
[21] = 20 μg (165 nmol) cysteine, pH 5.5, 4 hr
[22] = 20 μg (165 nmol) cysteine, pH 7, 0 hr
[23] = 20 μg (165 nmol) cysteine, pH 7, 2 hr
[24] = 20 μg (165 nmol) cysteine, pH 7, 4 hr
[25] = 20 μg (165 nmol) cysteine, pH 8.5, 0 hr
[26] = 20 μg (165 nmol) cysteine, pH 8.5, 2 hr
[27] = 20 μg (165 nmol) cysteine, pH 8.5, 4 hr

O=C(O)C[C@H](NC(=O)[C@@H]1CCCN(C(=O)CCC2CCNCC2)C1)c1cncc(OCCNC(=O)CN(CC(=O)O)CC(=O)O)c1 (99mTc complex, metal not drawn) [GP-105, 2,2′-((2-((2-((5-((S)-2-carboxy-1-((R)-1-(3-(piperidin-4-yl)propanoyl)piperidine-3-carboxamido)ethyl)pyridin-3-yl)oxy)ethyl)amino)-2-oxoethyl)azanediyl)diacetic acid]
radiochemical purity (labeling purity) [1]: 100% | radiochemical purity (labeling purity) [2]: 97.24% | radiochemical purity (labeling purity) [3]: 95.61% | radiochemical purity (labeling purity) [4]: 100% | radiochemical purity (labeling purity) [5]: 98.56% | radiochemical purity (labeling purity) [6]: 98.2% | radiochemical purity (labeling purity) [7]: 100% | radiochemical purity (labeling purity) [8]: 92.21% | radiochemical purity (labeling purity) [9]: 89.62% | radiochemical purity (labeling purity) [10]: 100% | radiochemical purity (labeling purity) [11]: 100% | radiochemical purity (labeling purity) [12]: 98.63% | radiochemical purity (labeling purity) [13]: 100% | radiochemical purity (labeling purity) [14]: 100% | radiochemical purity (labeling purity) [15]: 94.88% | radiochemical purity (labeling purity) [16]: 100% | radiochemical purity (labeling purity) [17]: 94.13% | radiochemical purity (labeling purity) [18]: 90.17% | radiochemical purity (labeling purity) [19]: 100% | radiochemical purity (labeling purity) [20]: 85.49% | radiochemical purity (labeling purity) [21]: 82.11% | radiochemical purity (labeling purity) [22]: 100% | radiochemical purity (labeling purity) [23]: 94.88% | radiochemical purity (labeling purity) [24]: 85.55% | radiochemical purity (labeling purity) [25]: 100% | radiochemical purity (labeling purity) [26]: 50.64% | radiochemical purity (labeling purity) [27]: 23.98%

O=C(O)C[C@H](NC(=O)[C@@H]1CCCN(C(=O)CCC2CCNCC2)C1)c1cncc(OCCNC(=O)CN(CCN(CCN(CC(=O)O)CC(=O)O)CC(=O)O)CC(=O)O)c1 [GP-104, (S)-3-(5-(2-(2-DTPA acetamido)ethoxy)pyridin-3-yl)-3-((R)-1-(3-(piperidin-4-yl)propanoyl)piperidine-3-carboxamido)propanoic acid]
radiochemical purity (labeling purity) [1]: 97.24% | radiochemical purity (labeling purity) [2]: 90.29% | radiochemical purity (labeling purity) [3]: 90.65% | radiochemical purity (labeling purity) [4]: 97.24% | radiochemical purity (labeling purity) [5]: 95.61% | radiochemical purity (labeling purity) [6]: 96.25% | radiochemical purity (labeling purity) [7]: 97.24% | radiochemical purity (labeling purity) [8]: 95.61% | radiochemical purity (labeling purity) [9]: 91.19% | radiochemical purity (labeling purity) [10]: 100% | radiochemical purity (labeling purity) [11]: 92.72% | radiochemical purity (labeling purity) [12]: 91.20% | radiochemical purity (labeling purity) [13]: 100% | radiochemical purity (labeling purity) [14]: 98.63% | radiochemical purity (labeling purity) [15]: 98.18% | radiochemical purity (labeling purity) [16]: 100% | radiochemical purity (labeling purity) [17]: 83.08% | radiochemical purity (labeling purity) [18]: 80.97% | radiochemical purity (labeling purity) [19]: 95.26% | radiochemical purity (labeling purity) [20]: 91.45% | radiochemical purity (labeling purity) [21]: 89.28% | radiochemical purity (labeling purity) [22]: 95.26% | radiochemical purity (labeling purity) [23]: 91.19% | radiochemical purity (labeling purity) [24]: 91.61% | radiochemical purity (labeling purity) [25]: 95.26% | radiochemical purity (labeling purity) [26]: 79.83% | radiochemical purity (labeling purity) [27]: 51.77%
